# Test results taken from patent US20060069132A1, “Azolecarboxamide herbicides” (priority 2004, published 2006).
# Key:
# [1] = tested on: cocklebur; test: Test B pre-/postemergence herbicide test; assay type: in vivo, Xanthium strumarium; details: for Plant response rating, Cocklebur: preemergence; for Cocklebur plant response rating: postemergence, visual rating, scale 0 (no effect) to 100 (complete control)
# In short: (§1)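 Formulation: non-phytotoxic solvent mix with surfactant. Timing: preemergence on seed and postemergence on 2–18 cm plants, applied concurrently. Readout after 13–15 d greenhouse: visual 0–100 control rating against controls.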
# [2] = tested on: small flower umbrella sedge; test: Test B flooded paddy test; assay type: in vivo, Cyperus difformis; details: 1000 g ai/ha, visual rating, scale 0 to 100 (0 no effect, 100 complete control), 13 to 15 days
# In short: (§2)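 Scale 0–100: zero equals no visible effect, 100 complete control, judged by eye relative to controls. Timing: 13 to 15 days in greenhouse post-treatment. Growth stage at spraying: two leaves (paddy) or one to four leaves, 2–18 cm (postemergence).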
# [3] = tested on: wild oat; test: Test B postemergence herbicide test; assay type: in vivo, Avena fatua; details: postemergence, visual rating, scale 0 (no effect) to 100 (complete control)
# In short: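 Greenhouse test; postemergence application to plants at 1–4 leaves (2–18 cm); paddy species at 2 leaves; evaluated visually vs controls at 13–15 days; scale 0–100 (100 = complete control).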
# [4] = tested on: corn; test: Test B pre-/postemergence herbicide test; assay type: in vivo, Zea mays; details: for Plant response rating, Corn: preemergence; for Corn plant response rating: postemergence, visual rating, scale 0 (no effect) to 100 (complete control)
# In short: (§3)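 Plants compared with untreated controls 13–15 days post-treatment and given a visual 0–100 injury score. Applications: preemergence to seeds; postemergence at 1- to 4-leaf (2–18 cm); paddy species flooded, 2-leaf stage. Vehicle non-phytotoxic, surfactant included.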
# [5] = tested on: morningglory; test: Test B pre-/postemergence herbicide test; assay type: in vivo, Ipomoea coccinea; details: for Plant response rating, Morningglory: preemergence; for Morningglory plant response rating: postemergence, visual rating, scale 0 (no effect) to 100 (complete control)
# In short: as §1
# [6] = tested on: large crabgrass; test: Test B pre-/postemergence herbicide test; assay type: in vivo, Digitaria sanguinalis; details: for Plant response rating, Crabgrass, Large: preemergence; for Crabgrass, Large plant response rating: postemergence, visual rating, scale 0 (no effect) to 100 (complete control)
# In short: as §3
# [7] = tested on: rice; test: Test B flooded paddy test; assay type: in vivo, Oryza sativa; details: 1000 g ai/ha, visual rating, scale 0 to 100 (0 no effect, 100 complete control), 13 to 15 days
# In short: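 Formulated test chemicals went onto postemergence plants measuring 2 to 18 cm, at one to four leaves. For the paddy assay, species had reached two leaves. Scoring took place 13–15 days later by eye, relative to untreated plants, using 0 for no effect up to 100 for full control.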
# [8] = tested on: Surinam grass; test: Test B pre-/postemergence herbicide test; assay type: in vivo, Urochloa decumbens; details: for Plant response rating, Surinam Grass: preemergence; for Surinam Grass plant response rating: postemergence, visual rating, scale 0 (no effect) to 100 (complete control)
# In short: as §3
# [9] = tested on: giant foxtail; test: Test B pre-/postemergence herbicide test; assay type: in vivo, Setaria faberi; details: for Plant response rating, Foxtail, Giant: preemergence; for Foxtail, Giant plant response rating: postemergence, visual rating, scale 0 (no effect) to 100 (complete control)
# In short: as §3
# [10] = tested on: pigweed; test: Test B pre-/postemergence herbicide test; assay type: in vivo, Amaranthus retroflexus; details: for Plant response rating, Pigweed: preemergence; for Pigweed plant response rating: postemergence, visual rating, scale 0 (no effect) to 100 (complete control)
# In short: as §3
# [11] = tested on: barnyardgrass; test: Test B pre-/postemergence herbicide test; assay type: in vivo, Echinochloa crus-galli; details: for Plant response rating, Barnyardgrass: preemergence; for Barnyardgrass plant response rating: postemergence, visual rating, scale 0 (no effect) to 100 (complete control)
# In short: as §1
# [12] = tested on: lambsquarters; test: Test B pre-/postemergence herbicide test; assay type: in vivo, Chenopodium album; details: for Plant response rating, Lambsquarters: preemergence; for Lambsquarters plant response rating: postemergence, visual rating, scale 0 (no effect) to 100 (complete control)
# In short: as §3
# [13] = tested on: blackgrass; test: Test B postemergence herbicide test; assay type: in vivo, Alopecurus myosuroides; details: postemergence, visual rating, scale 0 (no effect) to 100 (complete control)
# In short: as §2
# [14] = tested on: ducksalad; test: Test B flooded paddy test; assay type: in vivo, Heteranthera limosa; details: 1000 g ai/ha, visual rating, scale 0 to 100 (0 no effect, 100 complete control), 13 to 15 days
# In short: as §2
# [15] = tested on: velvetleaf; test: Test B pre-/postemergence herbicide test; assay type: in vivo, Abutilon theophrasti; details: for Plant response rating, Velvetleaf: preemergence; for Velvetleaf plant response rating: postemergence, visual rating, scale 0 (no effect) to 100 (complete control)
# In short: as §3
# [16] = 500 g ai/ha, visual rating 0-100, 0 no effect, 100 complete control
# [17] = 125 g ai/ha, 0 to 100 scale, 0 is no effect, 100 is complete control
compound,measurement,setting,value
CCn1nc(C(C)(C)C)cc1C(=O)Nc1cc(C(=O)NCC2CC2)ccn1 [Compound 155],"Plant response rating, Cocklebur",[1]; [16],30
same,Cocklebur plant response rating,[1]; 125 g ai/ha,60
same,Cocklebur plant response rating,[1]; 500 g ai/ha,80
same,"Plant response rating, Cocklebur",[1]; [17],0
same,"Sedge, Umbrella plant response rating",[2],90
same,"Oat, Wild plant response rating",[3]; 125 g ai/ha,40
same,"Oat, Wild plant response rating",[3]; 500 g ai/ha,50
same,"Plant response rating, Corn",[4]; [16],30
same,Corn plant response rating,[4]; 125 g ai/ha,10
same,Corn plant response rating,[4]; 500 g ai/ha,20
same,"Plant response rating, Corn",[4]; [17],0
same,"Plant response rating, Morningglory",[5]; [16],40
same,Morningglory plant response rating,[5]; 125 g ai/ha,30
same,Morningglory plant response rating,[5]; 500 g ai/ha,60
same,"Plant response rating, Morningglory",[5]; [17],20
same,"Plant response rating, Crabgrass, Large",[6]; [16],100
same,"Crabgrass, Large plant response rating",[6]; 125 g ai/ha,20
same,"Crabgrass, Large plant response rating",[6]; 500 g ai/ha,40
same,"Plant response rating, Crabgrass, Large",[6]; [17],60
same,Rice plant response rating,[7],20
same,"Plant response rating, Surinam Grass",[8]; [16],50
same,Surinam Grass plant response rating,[8]; 125 g ai/ha,20
same,Surinam Grass plant response rating,[8]; 500 g ai/ha,30
same,"Plant response rating, Surinam Grass",[8]; [17],10
same,"Plant response rating, Foxtail, Giant",[9]; [16],90
same,"Foxtail, Giant plant response rating",[9]; 125 g ai/ha,20
same,"Foxtail, Giant plant response rating",[9]; 500 g ai/ha,30
same,"Plant response rating, Foxtail, Giant",[9]; [17],20
same,"Plant response rating, Pigweed",[10]; [16],100
same,Pigweed plant response rating,[10]; 125 g ai/ha,60
same,Pigweed plant response rating,[10]; 500 g ai/ha,100
same,"Plant response rating, Pigweed",[10]; [17],100
same,"Plant response rating, Barnyardgrass",[11]; [16],90
same,Barnyardgrass plant response rating,[11]; 125 g ai/ha,10
same,Barnyardgrass plant response rating,[11]; 500 g ai/ha,20
same,"Plant response rating, Barnyardgrass",[11]; [17],60
same,"Plant response rating, Lambsquarters",[12]; [16],100
same,Lambsquarters plant response rating,[12]; 125 g ai/ha,70
same,Lambsquarters plant response rating,[12]; 500 g ai/ha,90
same,"Plant response rating, Lambsquarters",[12]; [17],100
same,Blackgrass plant response rating,[13]; 125 g ai/ha,40
same,Blackgrass plant response rating,[13]; 500 g ai/ha,50
same,Ducksalad plant response rating,[14],100
same,"Plant response rating, Velvetleaf",[15]; [16],70
same,Velvetleaf plant response rating,[15]; 125 g ai/ha,20
same,Velvetleaf plant response rating,[15]; 500 g ai/ha,70
same,"Plant response rating, Velvetleaf",[15]; [17],20
